Results from US9878984B2, “Anti-cancer compounds” (NORTHWESTERN UNIVERSITY, priority 2008, dated 2018).

What was measured:
[1] = tested on: pBR322 plasmid DNA; test: DNA intercalation assay (topoisomerase I based plasmid DNA unwinding); format: biochemical; details: 10, 31.6, and 100 μM, human topoisomerase I
Protocol: DNA Intercalation Assay: A DNA unwinding assay was performed as previously described with minor modifications. Four Units of recombinant wild type human topoisomerase I (Topogen—Port Orange, Fla.) were incubated with reaction buffer (included with enzyme), ˜0.5 μg of pBR322 plasmid DNA, which is a mixture of form I and form II plasmid DNA, and water added to a final volume of 19 μL. The reactions were incubated at 37° C. for 30 min and then 1 μL of each compound was added to give a final concentration of 10, 31.6, and 100 μM (final solvent concentration of 1% DMSO) and the reaction mixture was incubated at 37° C. for another 30 min. The reaction was stopped by the addition of 5 μL gel loading dye. The samples were immediately loaded onto a 1% agarose gel and electrophoresis was performed at 50 V for 3 h at room temperature. Pictures of the gels were obtained using a Kodak Image Station 440 CF (Kodak—Rochester, N.Y.) equipped with a UV source.
This activity depends on the ability of these compounds to intercalate DNA, which is the proposed mechanism of cytotoxic action of amonafide and its analogs. Therefore, the intercalation of plasmid DNA by A1-A9 was compared with the intercalation by amonafide to determine if they behave similarly. A topoisomerase I (topo I) based plasmid DNA unwinding assay was used to determine the intercalation of each compound [1]. […]

[2] = tested on: Normal cells (PBMC, HUVEC, and WI-38); test: Cancer cell selective growth inhibition (cancer cells vs normal cells); format: cell-based, human; details: 72 hr MTS
Protocol: […] Peripheral blood mononuclear cells (PBMCs) were voluntarily collected from a healthy laboratory worker by standard sterile phlebotomy techniques and isolated using Vacutainer CPT collection tubes (BD Biosciences—Bedford, Mass.). PBMCs were isolated freshly for each experiment. All DMEM and RPMI-1640 media was supplemented with 10% FBS (Atlanta Biologicals—Lawrenceville, Ga.) and 100 U/mL penicillin and streptomycin (Invitrogen). HUVEC (Human umbilical vein endothelial cells) were cultured in EGM-2 media with supplements provided in the manufacturers BulletKit (Lonza—Walersville, Md.). All cells were maintained at 37° C. and in a 5% CO2 atmosphere.
Growth Inhibition Assays: HeLa, MDA-MB-231, PC-3M, WI-38, and HUVEC cells were plated at 5,000 cells per well in 96 well plates and allowed to attach for 20 hr (8 hr for HeLa). The media was removed and 198 μL of fresh media was added to each well. […] PBMCs were isolated and plated at 100,000 per well in 96 well plates with a volume of 197 μL. They were allowed to settle in the media for 20 hr, at which point 1 μL of 1 mg/mL phytohemagglutinin (Sigma—St. Loius Mo.) in PBS was added to stimulate proliferation (final concentration of 5 μg/mL). […] Cell proliferation was measured at t=0 (time at start of treatment) and t=72 hr using MTS AQueous non-radioactive proliferation assay (Promega—Madison, Wis.). This assay utilizes the metabolic conversion of yellow tetrazolium to a purple formazan by live cells and the color change is proportional to the number of cells. […] The absorbance at 490 nm in each well was read with a Spectramax 250 plate reader (Molecular Devices—Sunnyvale, Calif.). […] Data were fit to one site dose response curves in order to obtain specific growth inhibitory concentrations and the relative standard errors of the mean for these concentrations were calculated by the XLfit4 software. Statistical significance (p value) for the selectivity and all subsequent assays was determined with the two tailed homoscedastic Student's t-test. […]

[3] = tested on: HeLa, PC-3M, and MDA-MB-231; test: MTS growth inhibition assay, human cancer cell lines; format: cell-based; details: 72 hr, MTS proliferation assay
Protocol: Cell Culture: HeLa (cervical carcinoma), WI-38 (normal human […] fibroblasts), and MDA-MB-231 (breast carcinoma), cells were cultured in DMEM (Invitrogen—Carlsbad, Calif.) and PC-3M (metastatic prostate carcinoma) cells were cultured in RPMI-1640. Peripheral blood mononuclear cells (PBMCs) were voluntarily collected from a healthy laboratory worker by standard sterile phlebotomy techniques and isolated using Vacutainer CPT collection tubes (BD Biosciences—Bedford, Mass.). PBMCs were isolated freshly for each experiment. All DMEM and RPMI-1640 media was supplemented with 10% FBS (Atlanta Biologicals—Lawrenceville, Ga.) and 100 U/mL penicillin and streptomycin (Invitrogen). […]
Growth Inhibition Assays: HeLa, MDA-MB-231, PC-3M, WI-38, and HUVEC cells were plated at 5,000 cells per well in 96 well plates and allowed to attach for 20 hr (8 hr for HeLa). […] Cell proliferation was measured at t=0 (time at start of treatment) and t=72 hr using MTS AQueous non-radioactive proliferation assay (Promega—Madison, Wis.). […] The absorbance at 490 nm in each well was read with a Spectramax 250 plate reader (Molecular Devices—Sunnyvale, Calif.). […] Data were fit to one site dose response curves in order to obtain specific growth inhibitory concentrations and the relative standard errors of the mean for these concentrations were calculated by the XLfit4 software. […]

[4] = tested on: Chk2; test: DNA damage response assay (pThr68-Chk2 / total Chk2 western blot); format: cell-based, human; details: HeLa cells, [GI99%], 20 hr, normalized to mitoxantrone
Protocol: DNA Damage Response Assay: 250,000 HeLa cells were plated in 35 mm culture dishes and allowed to attach for 8 hr and were then treated with the [GI99%] of each compound for 20 hr (total media volume was […] with 1% DMSO). After treatment cells were lysed in 150 μL detergent buffer containing 1:100 v/v protease inhibitor cocktail (Sigma—St. Louis, Mo.). Lysates were run on denaturing 12% acrylamide gels and transferred to nitrocellulose membranes. The membranes were blocked in blotto, incubated in anti-pThr68-Chk2 antibody (Cell Signaling—Danvers, Mass.) at 1:500 v/v dilution in blotto overnight 4° C., washed, incubated in HRP conjugated anti-rabbit secondary antibody (Jackson) at 1:5,000 v/v dilution in blotto for 1 hr, and then developed. The membranes were then stripped with a reducing buffer, blocked in blotto, incubated in anti-Chk2 antibody (Biolegend—San Diego, Calif.) at 1:500 v/v dilution in blotto overnight at 4° C., washed, incubated in HRP conjugated anti-mouse secondary antibody (Jackson) at 1:5,000 v/v dilution in blotto for 1 hr, and then developed. Membranes were developed with PicoWest Developing Solution (Pierce) and exposed to film. The intensities of bands were quantified as described in the previous section. The data are expressed as the average ratio of pThr68-Chk2 to total Chk2 as normalized to the mitoxantrone control in each of three independent experiments.
Topoisomerase inhibition by most mechanisms should cause activation of DNA damage response pathways because of the production of single and double strand DNA breaks, as is the case with amonafide. […] Therefore, measuring the DNA damage response at a fixed cytotoxic dose ([GI99%]) will determine the extent that DNA damage contributes to the cytotoxicity of these compounds. […] Activation of Chk2 was determined by measuring the ratio of pThr68-Chk2 to total Chk2 in HeLa cells treated with the [GI99%].

[5] = tested on: HeLa cells; test: Transwell invasion assay; format: cell-based, human; details: [GI99%], matrigel, 20 hr
Protocol: Transwell Invasion Assay: HeLa cells were plated at 250,000 per 35 mm well and allowed to attach for 8 hr. The cells were washed with PBS and then treated for 4 hr with the [GI99%] of each compound (or 1% DMSO—vehicle control) in serum free media to decrease the number of invading cells in the beginning of the experiment due to a preliminary lack of drug exposure. The cells were then trypsinized and counted by trypan blue exclusion with a hemacytometer (Sigma—St. Louis, Mo.). Eight micron pore size control well inserts for 12 well plates (BD Biosciences) were coated with 100 μL 1 mg/mL matrigel (Sigma—St. Louis, Mo.) and allowed to solidify at room temperature for 1 hr. The excess matrigel was aspirated and the inserts were gently washed with PBS. The cells were seeded at a density of 300,000 per insert well in a volume of 500 μL serum free media containing a derivative or vehicle. The inserts were then placed in wells containing 700 μL serum free media with the respective compound. After 20 hr the cells on the top of the membranes were gently removed with a cotton swab, the membranes then were fixed in methanol for 1 min, stained in Gills No. 3 Hematoxylin (Sigma—St. Louis, Mo.) for 5 min, rinsed in tap water, and allowed to dry overnight. The membranes were excised, mounted on slides, and the cells were counted under the 40× objective of a bright field microscope. The data are expressed as the average total number of invading cells counted in 20 fields of each membrane, as standardized to the vehicle control, from six experiments.
Effect of derivatives on the malignant phenotype—invasion assay: If A1-A9 have differential targets, DNA binding specificity, or downstream effects they may differentially alter the malignant behavior of cells. Also, anti-cancer compounds can be efficacious against tumors in other ways besides inhibiting growth and inducing death of cancer cells; they can also alter the behavior of malignant cells. Therefore, the ability of A1-A9 and amonafide to alter the invasive behavior of cancer cells in a transwell (also known as Boyden chamber) invasion assay was evaluated, which determines the ability of cells to migrate through a proteinacious gel. This behavior is considered to be representative of cancer cell invasion through the basement membrane of the primary tumor environment. In this assay, treated cells are seeded on to the top of the matrigel-coated porous membrane, allowed to invade through the proteinacious gel onto the underside of the membrane, and then counted.

Compound: CCCCCCNc1ccc2c3c(cccc13)C(=O)N(CCN(C)C)C2=O [A5, 6-hexylamino-2-[2-(dimethylamino)ethyl]-1H-benz[de]isoquinoline-1,3(2H)-dione]
- DNA intercalation [1]: intercalates much less than the other compounds
- cancer cell selective growth inhibition (selectivity) [2]: doing so significantly (p<0.05)

Compound: CN(C)CCN1C(=O)c2cccc3cccc(c23)C1=O [A9, 2-[2-(dimethylamino)ethyl]-1H-benz[de]isoquinoline-1,3(2H)-dione]
- growth inhibition potency [3]: still remains fairly potent
- DNA damage response (ratio of pThr68-Chk2 to total Chk2) [4]: evoked the strongest DNA damage response
- invasive behavior (% invading cells vs vehicle) [5]: decreases invasive behavior
